Tests used:
NCI-H3122 = assay: cells; conditions: Homo sapiens, NCI-H3122, 72 h
Description: Antiproliferative activity against EML4-ALK-positive human NCI-H3122 cells incubated for 72 hrs and measured by CCK-8 assay

NCI-H2228 [1] = assay: cells; conditions: Homo sapiens, NCI-H2228, 72 h
Description: Antiproliferative activity against EML4-ALK-positive human NCI-H2228 cells incubated for 72 hrs and measured by CCK-8 assay

KARPAS-299 = assay: cells; conditions: Homo sapiens, KARPAS-299, 72 h
Description: Antiproliferative activity against NPM-ALK-positive human KARPAS-299 cells incubated for 72 hrs and measured by CCK-8 assay

A549 = assay: cells; conditions: Homo sapiens, A549, 72 h
Description: Antiproliferative activity against EGFR-positive human A549 cells incubated for 72 hrs and measured by CCK-8 assay

[2] = biological target: ALK tyrosine kinase receptor (Homo sapiens, UniProt Q9UM73); assay: Inhibition of ALK (unknown origin) incubated for 1 hr and measured by mobility shift assay
[3] = biological target: ALK tyrosine kinase receptor (Homo sapiens, UniProt Q9UM73, G1202R); assay: Inhibition of ALK G1202R mutant (unknown origin) incubated for 1 hr and measured by mobility shift assay
Chain of ALK tyrosine kinase receptor (Homo sapiens, UniProt Q9UM73, G1202R) (Q9UM73 19-1620 G1202R limits assumed): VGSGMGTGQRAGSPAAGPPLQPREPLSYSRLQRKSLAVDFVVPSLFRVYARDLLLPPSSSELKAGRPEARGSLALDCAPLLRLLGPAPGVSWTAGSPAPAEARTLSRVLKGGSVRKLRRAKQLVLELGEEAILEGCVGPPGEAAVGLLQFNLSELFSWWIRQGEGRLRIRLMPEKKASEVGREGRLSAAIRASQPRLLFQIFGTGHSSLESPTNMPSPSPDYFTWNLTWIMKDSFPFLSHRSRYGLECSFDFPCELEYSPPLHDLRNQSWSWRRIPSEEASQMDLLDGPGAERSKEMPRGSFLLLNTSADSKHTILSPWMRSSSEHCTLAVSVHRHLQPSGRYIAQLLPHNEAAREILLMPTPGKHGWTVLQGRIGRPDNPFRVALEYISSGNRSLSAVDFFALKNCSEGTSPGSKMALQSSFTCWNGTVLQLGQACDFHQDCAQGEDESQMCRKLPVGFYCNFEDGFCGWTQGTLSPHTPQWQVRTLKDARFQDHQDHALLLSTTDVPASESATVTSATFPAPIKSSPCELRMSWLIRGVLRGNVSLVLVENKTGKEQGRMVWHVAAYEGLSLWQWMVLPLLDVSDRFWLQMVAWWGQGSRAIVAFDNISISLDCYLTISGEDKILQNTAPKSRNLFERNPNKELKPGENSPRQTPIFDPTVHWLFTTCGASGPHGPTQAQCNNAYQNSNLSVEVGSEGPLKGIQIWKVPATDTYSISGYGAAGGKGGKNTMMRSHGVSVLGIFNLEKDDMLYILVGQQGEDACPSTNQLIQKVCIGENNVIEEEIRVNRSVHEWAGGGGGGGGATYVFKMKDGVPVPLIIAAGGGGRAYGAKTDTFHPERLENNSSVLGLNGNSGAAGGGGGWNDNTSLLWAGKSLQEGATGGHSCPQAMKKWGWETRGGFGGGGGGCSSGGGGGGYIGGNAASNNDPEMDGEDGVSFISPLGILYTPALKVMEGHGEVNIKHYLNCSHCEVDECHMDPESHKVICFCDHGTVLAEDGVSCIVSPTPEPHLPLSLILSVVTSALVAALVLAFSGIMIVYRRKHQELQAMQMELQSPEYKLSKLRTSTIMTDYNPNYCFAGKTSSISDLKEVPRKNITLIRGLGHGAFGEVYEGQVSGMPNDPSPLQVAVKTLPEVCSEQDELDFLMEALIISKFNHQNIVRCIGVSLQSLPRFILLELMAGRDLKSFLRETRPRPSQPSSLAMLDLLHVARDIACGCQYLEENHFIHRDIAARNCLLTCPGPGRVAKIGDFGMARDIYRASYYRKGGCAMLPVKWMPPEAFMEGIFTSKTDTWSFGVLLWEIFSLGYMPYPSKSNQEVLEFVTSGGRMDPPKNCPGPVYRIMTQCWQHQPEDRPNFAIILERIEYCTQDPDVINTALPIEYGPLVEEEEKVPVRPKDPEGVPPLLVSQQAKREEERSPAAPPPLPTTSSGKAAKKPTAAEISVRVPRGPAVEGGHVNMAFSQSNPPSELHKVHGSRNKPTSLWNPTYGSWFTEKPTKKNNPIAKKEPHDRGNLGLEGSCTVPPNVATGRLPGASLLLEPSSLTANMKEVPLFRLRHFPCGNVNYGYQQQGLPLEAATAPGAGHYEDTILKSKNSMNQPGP

[4] = biological target: ALK tyrosine kinase receptor (Homo sapiens, UniProt Q9UM73, L1196M); assay: Inhibition of ALK L1196M mutant (unknown origin) incubated for 1 hr and measured by mobility shift assay
Chain of ALK tyrosine kinase receptor (Homo sapiens, UniProt Q9UM73, L1196M) (Q9UM73 19-1620 L1196M limits assumed): as the sequence (Q9UM73 19-1620 G1202R limits assumed) above, with L1178M, R1184G counted along it

HCT-116 = assay: Antiproliferative activity against human HCT-116 cells incubated for 72 hrs and measured by CCK-8 assay; assay type: functional, cell-based; conditions: HCT-116, 72 h
MCF7 = assay: Antiproliferative activity against human MCF7 cells incubated for 72 hrs and measured by CCK-8 assay; assay type: functional, cell-based; conditions: MCF7, 72 h
PC-3 = assay: Antiproliferative activity against human PC-3 cells incubated for 72 hrs and measured by CCK-8 assay; assay type: functional, cell-based; conditions: PC-3, 72 h
NCI-H1581 = assay: Antiproliferative activity against human NCI-H1581 cells incubated for 72 hrs and measured by CCK-8 assay; assay type: functional, cell-based; conditions: NCI-H1581, 72 h
[5] = Cytotoxicity against human HELF cells incubated for 72 hrs and measured by CCK-8 assay; assay type: toxicity, cell-based
NCI-H2228 [6] = assay: Induction of apoptosis in EML4-ALK-positive human NCI-H2228 cells assessed as apoptotic rate at 100 nM measured after 48 hrs by annexin V-FITC/propidium iodide staining based flow cytometry (reference value: 6.6%); assay type: functional
[7] = biological target: Epidermal growth factor receptor (Homo sapiens, UniProt P00533); assay: Inhibition of EGFR (unknown origin) incubated for 1 hr and measured by mobility shift assay
Chain of Epidermal growth factor receptor (P00533 whole entry): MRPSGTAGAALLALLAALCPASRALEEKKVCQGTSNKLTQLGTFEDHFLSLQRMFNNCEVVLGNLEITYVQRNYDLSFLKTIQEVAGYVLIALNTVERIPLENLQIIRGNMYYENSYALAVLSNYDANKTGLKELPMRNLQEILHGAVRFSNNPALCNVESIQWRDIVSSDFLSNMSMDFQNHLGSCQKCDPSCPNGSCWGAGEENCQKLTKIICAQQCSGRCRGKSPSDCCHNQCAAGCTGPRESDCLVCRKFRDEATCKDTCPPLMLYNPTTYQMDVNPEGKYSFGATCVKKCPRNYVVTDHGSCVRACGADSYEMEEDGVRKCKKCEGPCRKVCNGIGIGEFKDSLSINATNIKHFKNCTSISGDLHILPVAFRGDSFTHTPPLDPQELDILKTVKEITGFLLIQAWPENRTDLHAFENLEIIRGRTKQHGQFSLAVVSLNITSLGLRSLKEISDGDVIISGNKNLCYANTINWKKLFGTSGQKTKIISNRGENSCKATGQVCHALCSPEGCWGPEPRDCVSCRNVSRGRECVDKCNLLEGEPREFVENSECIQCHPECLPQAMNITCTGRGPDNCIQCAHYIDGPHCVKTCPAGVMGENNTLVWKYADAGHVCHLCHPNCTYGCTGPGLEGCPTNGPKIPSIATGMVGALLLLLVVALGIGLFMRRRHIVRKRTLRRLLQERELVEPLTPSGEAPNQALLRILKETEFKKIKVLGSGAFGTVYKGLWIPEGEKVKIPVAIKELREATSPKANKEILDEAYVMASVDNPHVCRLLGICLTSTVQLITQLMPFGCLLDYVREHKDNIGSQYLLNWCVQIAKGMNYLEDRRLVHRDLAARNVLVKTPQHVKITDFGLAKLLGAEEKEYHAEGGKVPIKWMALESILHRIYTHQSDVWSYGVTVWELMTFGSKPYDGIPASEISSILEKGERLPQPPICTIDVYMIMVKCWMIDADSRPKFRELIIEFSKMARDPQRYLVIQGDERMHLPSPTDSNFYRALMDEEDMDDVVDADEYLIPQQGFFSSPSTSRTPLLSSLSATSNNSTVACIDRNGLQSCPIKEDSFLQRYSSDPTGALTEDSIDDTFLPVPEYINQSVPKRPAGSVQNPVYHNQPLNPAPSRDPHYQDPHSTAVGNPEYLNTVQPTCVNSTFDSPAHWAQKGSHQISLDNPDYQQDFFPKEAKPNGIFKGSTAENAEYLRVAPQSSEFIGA

Chain of ALK tyrosine kinase receptor (Homo sapiens, UniProt Q9UM73) (Q9UM73 whole entry): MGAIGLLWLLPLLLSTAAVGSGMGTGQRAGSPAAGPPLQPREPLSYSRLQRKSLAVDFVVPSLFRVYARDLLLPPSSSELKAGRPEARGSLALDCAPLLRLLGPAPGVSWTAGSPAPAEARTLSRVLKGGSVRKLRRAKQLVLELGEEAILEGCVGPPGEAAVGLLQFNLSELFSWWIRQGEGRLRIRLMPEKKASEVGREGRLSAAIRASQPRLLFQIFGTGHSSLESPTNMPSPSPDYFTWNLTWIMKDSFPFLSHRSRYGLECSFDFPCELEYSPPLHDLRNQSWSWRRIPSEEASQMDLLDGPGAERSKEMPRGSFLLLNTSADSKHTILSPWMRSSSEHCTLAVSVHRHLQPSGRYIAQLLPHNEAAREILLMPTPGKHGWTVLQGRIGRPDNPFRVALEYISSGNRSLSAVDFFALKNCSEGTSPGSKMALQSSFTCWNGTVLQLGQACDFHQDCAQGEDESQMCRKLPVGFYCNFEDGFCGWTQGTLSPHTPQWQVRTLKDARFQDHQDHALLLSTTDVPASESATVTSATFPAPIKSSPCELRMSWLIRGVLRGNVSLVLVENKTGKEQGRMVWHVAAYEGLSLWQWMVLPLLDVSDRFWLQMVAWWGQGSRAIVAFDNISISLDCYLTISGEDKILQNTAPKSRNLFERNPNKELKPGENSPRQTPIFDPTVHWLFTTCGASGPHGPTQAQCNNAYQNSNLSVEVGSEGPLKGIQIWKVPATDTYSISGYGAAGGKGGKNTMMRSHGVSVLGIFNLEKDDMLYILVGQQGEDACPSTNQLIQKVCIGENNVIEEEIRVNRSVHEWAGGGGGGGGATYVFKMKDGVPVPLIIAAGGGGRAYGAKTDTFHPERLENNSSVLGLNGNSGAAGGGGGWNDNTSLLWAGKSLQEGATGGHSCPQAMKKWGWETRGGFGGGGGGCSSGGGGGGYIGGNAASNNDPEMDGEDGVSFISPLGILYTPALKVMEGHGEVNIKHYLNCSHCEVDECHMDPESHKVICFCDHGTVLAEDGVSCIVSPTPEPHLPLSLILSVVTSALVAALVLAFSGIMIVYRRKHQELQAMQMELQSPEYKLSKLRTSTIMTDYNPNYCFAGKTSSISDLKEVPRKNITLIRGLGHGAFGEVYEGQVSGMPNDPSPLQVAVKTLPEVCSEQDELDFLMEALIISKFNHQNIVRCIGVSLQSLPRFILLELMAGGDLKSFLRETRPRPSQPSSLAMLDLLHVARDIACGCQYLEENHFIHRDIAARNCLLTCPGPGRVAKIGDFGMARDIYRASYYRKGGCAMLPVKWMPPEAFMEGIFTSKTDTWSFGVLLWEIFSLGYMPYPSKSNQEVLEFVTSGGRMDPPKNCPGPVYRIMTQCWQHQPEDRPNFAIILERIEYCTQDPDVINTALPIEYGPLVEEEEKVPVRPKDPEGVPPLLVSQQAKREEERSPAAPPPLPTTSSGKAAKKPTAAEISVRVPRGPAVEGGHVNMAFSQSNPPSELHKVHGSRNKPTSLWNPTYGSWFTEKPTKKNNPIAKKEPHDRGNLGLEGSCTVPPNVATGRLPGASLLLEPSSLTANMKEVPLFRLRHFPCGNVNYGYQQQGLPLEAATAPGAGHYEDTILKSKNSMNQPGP

Row | Compound | IC50 (NCI-H3122) [µM] | IC50 (NCI-H2228 [1]) [µM] | IC50 (KARPAS-299) [µM] | IC50 (A549) [µM] | other results
1 | CN(C)CC(=O)Nc1n[nH]c2cc(Nc3ncc(Cl)c(Nc4ccccc4NS(C)(=O)=O)n3)ccc12 | 0.245 | 0.339 | 0.132 | 3.44 | –
2 | CNC(=O)c1ccccc1Nc1nc(Nc2ccc3c(NC(=O)CN4CCCC4)n[nH]c3c2)ncc1Cl | – | – | – | – | IC50 [2]: 0.0036 µM; IC50 [3]: 0.0021 µM; IC50 [4]: 0.0044 µM
3 | CNC(=O)c1ccccc1Nc1nc(Nc2ccc3c(NC(=O)CN4CCN(CCO)CC4)n[nH]c3c2)ncc1Cl | 0.175 | 0.412 | 0.053 | 13.6 | –
4 | CN(C)CC(=O)Nc1n[nH]c2cc(Nc3ncc(Cl)c(Nc4ccccc4NS(=O)(=O)C4CC4)n3)ccc12 | 1.53 | 0.781 | 0.169 | 1.85 | –
5 | CC(C)S(=O)(=O)c1ccccc1Nc1nc(Nc2ccc3c(NC(=O)CN(C)C)n[nH]c3c2)ncc1Cl | – | – | – | – | IC50 [2]: 0.0025 µM; IC50 [3]: 0.0038 µM; IC50 [4]: 0.0048 µM
6 | CNC(=O)c1ccccc1Nc1nc(Nc2ccc3c(NC(=O)CN4CCC(=O)CC4)n[nH]c3c2)ncc1Cl | 0.187 | 0.569 | 0.063 | 2.03 | –
7 | CN(C)CC(=O)Nc1n[nH]c2cc(Nc3ncc(Cl)c(Nc4ccccc4NC(=O)C4CC4)n3)ccc12 | 0.836 | 0.823 | 0.558 | 1.32 | –
8 | CC(C)S(=O)(=O)c1ccccc1Nc1nc(Nc2ccc3c(NC(=O)CN4CCN(CCO)CC4)n[nH]c3c2)ncc1Cl | 0.157 | 0.25 | 0.046 | 7.26 | –
9 | C=CC(=O)Nc1ccccc1Nc1nc(Nc2ccc3c(NC(=O)CN(C)C)n[nH]c3c2)ncc1Cl | 3.49 | 1.81 | 0.899 | 4.49 | –
10 | CCN1CCN(CC(=O)Nc2n[nH]c3cc(Nc4ncc(Cl)c(Nc5ccccc5C(=O)NC)n4)ccc23)CC1 | 0.162 | 0.242 | 0.021 | 4.47 | –
11 | CN(C)CC(=O)Nc1n[nH]c2cc(Nc3ncc(Cl)c(Nc4ccccc4NC(=O)C(Cl)(Cl)Cl)n3)ccc12 | 2.96 | 1.45 | 1.27 | 5.78 | –
12 | CNC(=O)c1ccccc1Nc1nc(Nc2ccc3c(NC(=O)CN4CCC(O)CC4)n[nH]c3c2)ncc1Cl | 0.151 | 0.362 | 0.059 | 2 | –
13 | CN(C)CC(=O)Nc1n[nH]c2cc(Nc3ncc(Cl)c(Nc4ccccc4NC(=O)C(C)(C)C)n3)ccc12 | 1.57 | 0.912 | 0.718 | 1.69 | –
14 | C/C=C/C(=O)Nc1ccccc1Nc1nc(Nc2ccc3c(NC(=O)CN(C)C)n[nH]c3c2)ncc1Cl | 3.69 | 2.98 | 1.25 | 5.91 | –

Continued by falling IC50 (NCI-H3122), values first:

Row | IC50 (NCI-H3122) [µM] | IC50 (NCI-H2228 [1]) [µM] | IC50 (KARPAS-299) [µM] | IC50 (A549) [µM] | Compound | other results
15 | 0.137 | 0.322 | 0.076 | 1.22 | CNC(=O)c1ccccc1Nc1nc(Nc2ccc3c(NC(=O)CN4CCSCC4)n[nH]c3c2)ncc1Cl | –
16 | 0.129 | 0.17 | 0.041 | 1.84 | CC(C)S(=O)(=O)c1ccccc1Nc1nc(Nc2ccc3c(NC(=O)CN4CCC(O)CC4)n[nH]c3c2)ncc1Cl | –
17 | 0.124 | 0.126 | 0.036 | 1.18 | CC(C)S(=O)(=O)c1ccccc1Nc1nc(Nc2ccc3c(NC(=O)CN4CCSCC4)n[nH]c3c2)ncc1Cl | –
18 | 0.107 | 0.204 | 0.031 | 7.21 | CNC(=O)c1ccccc1Nc1nc(Nc2ccc3c(NC(=O)CN4CCCCC4)n[nH]c3c2)ncc1Cl | –
19 | 0.097 | 0.112 | 0.023 | 2.23 | CNC(=O)c1ccccc1Nc1nc(Nc2ccc3c(NC(=O)CN4CCOCC4)n[nH]c3c2)ncc1Cl | –
20 | 0.089 | 0.52 | 0.034 | 3.58 | CC(C)S(=O)(=O)c1ccccc1Nc1nc(Nc2ccc3c(NC(=O)CN4CCN(C)CC4)n[nH]c3c2)ncc1Cl | –
21 | 0.085 | 0.062 | 0.017 | 2.35 | CCN(CC)CC(=O)Nc1n[nH]c2cc(Nc3ncc(Cl)c(Nc4ccccc4C(=O)NC)n3)ccc12 | –
22 | 0.084 | 0.14 | 0.026 | 3.97 | CCN1CCN(CC(=O)Nc2n[nH]c3cc(Nc4ncc(Cl)c(Nc5ccccc5S(=O)(=O)C(C)C)n4)ccc23)CC1 | –
23 | 0.083 | 0.133 | 0.019 | 3.26 | CC(C)S(=O)(=O)c1ccccc1Nc1nc(Nc2ccc3c(NC(=O)CN4CCCCC4)n[nH]c3c2)ncc1Cl | –
24 | 0.074 | 0.77 | 0.359 | 1.67 | CC(=O)Nc1ccccc1Nc1nc(Nc2ccc3c(NC(=O)CN(C)C)n[nH]c3c2)ncc1Cl | –
25 | 0.073 | 0.124 | 0.022 | 2.39 | CC(C)S(=O)(=O)c1ccccc1Nc1nc(Nc2ccc3c(NC(=O)CN4CCOCC4)n[nH]c3c2)ncc1Cl | –
26 | 0.071 | 0.113 | 0.029 | 4.81 | CNC(=O)c1ccccc1Nc1nc(Nc2ccc3c(NC(=O)CN4CCC(C)CC4)n[nH]c3c2)ncc1Cl | –
27 | 0.065 | 0.104 | 0.016 | 1.47 | CC1CCN(CC(=O)Nc2n[nH]c3cc(Nc4ncc(Cl)c(Nc5ccccc5S(=O)(=O)C(C)C)n4)ccc23)CC1 | –
28 | 0.057 | 0.045 | 0.021 | 2.56 | CCN(CC)CC(=O)Nc1n[nH]c2cc(Nc3ncc(Cl)c(Nc4ccccc4S(=O)(=O)C(C)C)n3)ccc12 | IC50 [2]: 0.0033 µM; IC50 [3]: 0.0018 µM; IC50 [7]: > 1 µM; IC50 [4]: 0.0038 µM
29 | 0.043 | 0.066 | 0.024 | 2.77 | Cc1cc(Nc2ncc(Cl)c(Nc3ccccc3S(=O)(=O)C(C)C)n2)c(OC(C)C)cc1C1CCNCC1 [CERITINIB] | IC50 (HCT-116): 1.93 µM; IC50 (MCF7): 1.87 µM; IC50 (PC-3): 1.02 µM; IC50 (NCI-H1581): 2.31 µM; IC50 at 72 h [5]: > 20 µM; Activity (NCI-H2228 [6]): 12.32%
30 | 0.021 | 0.051 | 0.012 | 2.19 | CNC(=O)c1ccccc1Nc1nc(Nc2ccc3c(NC(=O)CN(C)C)n[nH]c3c2)ncc1Cl | IC50 [2]: 0.0037 µM; IC50 [3]: 0.0025 µM; IC50 [7]: > 1 µM; IC50 [4]: 0.0066 µM
